“Also recorded” adds a separate entry of the source.
Experiments:
[1] = tested on: new HF formation by EDIHN in wounded skin; experiment: whole-mount EDIHN assay after excisional wounding of mice; type: in vivo
Text: Punch wound and excisional wound induction. The backs of 21-day-old mice were depilated as described for Example 1 and sterilized with alcohol, followed by 1% iodine solution. Punch wounds, 4 mm in diameter, were induced using a dermal biopsy punch, down to, but not through, the muscle fascia. Excisional wounds were full thickness and 1 cm in diameter; skin and panniculus carnosus was excised using fine surgical scissors.
Whole mounting and immunofluorescence. HF whole mounts were obtained by incubating fresh skin with EDTA (20 mM in PBS) at 37° C. overnight, then separating the epidermis and dermis. Epidermis was then fixed in 10% formalin for 10 min, room temperature (RT). Dermis was fixed in acetone overnight, RT. After rinsing with PBS, whole mounts were stained with antibodies for immunohistochemistry (schematically depicted in FIG. 12) and were imaged using a Leica confocal microscope.
21 day-old mice were wounded as described in previous Examples. Starting from day 11 after wounding, a time point corresponding to the point at which the wound had recently re-epithelialized, 10 mL of 1 mg/ml EGF was injected into the wound bed. EGF was injected once per day after this point for a total of 5 days. Three days later, the skin was collected, and whole-mount EDIHN assays were performed. […] In addition, whole mounts of control and treated skin were analyzed with anti-K17 antibody immunostaining. […] (FIGS. 25 C-D).
In an additional experiment, recombinant EGF (1 microgram (mcg)/microliter (mcl)) was injected at days 11, 13 and 15 after wounding. Skin was collected at 18 days after wounding and stained for K17 and alkaline phosphotase.
To determine the effect of administration of EGF receptor inhibitors on DIHN, the inhibitor AG1478 (150 μM in 10 μL volume) was administered as a single injection 11 days after incisional wounding (1 cm2) to the middle of the wound near the skin surface. […] Left panel: epidermis stained for K17, with three large hair follicles next to each other. Right panel: dermis stained for AP with large coalescing dermal papilla areas.

[2] = tested on: hair re-growth in abraded areas; experiment: hair re-growth after epidermal abrasion of mice; type: in vivo; settings: epidermis of mice abraded, then recombinant EGF administered
Text: Depilation and epidermal abrasion. Mice were anesthetized with an injection of sodium pentobarbital before the hair on the back was clipped and depilated with Nair (Carter-Wallace, New York, N.Y.), then epidermis was removed using a rotating felt wheel as described by Argyris T, J. Invest. Dermatol. 75: 360 (1980). After scrubbing with 70% ethanol and drying under an incandescent lamp, the basal and supra-basal layers in an area of 1.5 cm^2/cm of the inter-follicular epidermis were removed by careful abrasion with a felt wheel mounted on a Dremel Moto-tool (Racine, Wis.). After abrasion, the skin was shiny and smooth, and there was no blood. One day later, the abraded area was covered by a fibrin crust, which fell off after 3-7 days, exposing the newly regenerated epidermis. A group of control mice was sacrificed immediately after abrasion to confirm microscopically the complete removal of the interfollicular epidermis.
Hair-bearing regions of the epidermis of mice is abraded, as described in Example 1, then administering recombinant EGF, as described in Example 1.

Compound	HF formation as assessed by gross morphology ([1]; 21 day-old mice, 10 mL of 1 mg/ml EGF injected into wound bed once per day for 5 days from day 11 after wounding, skin collected three days later)	new HF formation, whole mounts with anti-K17 antibody immunostaining ([1]; 21 day-old mice, EGF injected into wound bed once per day for 5 days from day 11 after wounding, n=4 vs control n=2)	EDIHN, skin stained for K17 and alkaline phosphotase ([1]; recombinant EGF 1 mcg/mcl injected at days 11, 13 and 15 after wounding, skin collected at 18 days)	hair re-growth in the abraded areas [2]	generation of hair follicles (number and size) compared with control mice that were wounded only ([1]; 150 μM in 10 μL, single injection 11 days after excisional wounding (1 cm diameter), middle of the wound)
EGF: epidermal growth factor, recombinant, injected into the wound bed	prevented HF formation	no new HF formation; also recorded: inhibits HF formation	inhibited EDIHN	prevents hair re-growth	
COc1cc2ncnc(Nc3cccc(Cl)c3)c2cc1OC [AG1478, reference compound]					more and larger hair follicles; also recorded: more and larger HF

— US8252749B2, “Methods, kits, and compositions for generating new hair follicles and growing hair” (Follica, Inc., priority 2006, dated 2012)
